The test system of experiment [1] is HUMAN RSV-A (“LONG” STRAIN). In words: RSV-A assay (CPE, ATPlite) in Hep-2 cells. The note with it: human respiratory syncytial virus, 120 h, MOI 0.1, 5-day incubation. Type of experiment: cell-based. The text has this:
Methods for RSV-A Assay Hep-2 cells, (originally derived from tumors grown in irradiated-cortisonised weanling rats that had been injected with epidermoid carcinoma tissue from the larynx of a person, but later found to be indistinguishable from HeLa cells by PCR DNA analysis), were used for the culturing of genotype A, “Long” strain RSV. Flasks were inoculated with RSV and viral stocks were collected once cytopathic effect (CPE) was greater than 90%. Viral stocks in 25% sucrose media were snap frozen using liquid nitrogen to increase viral stability. Viral stock titers were quantified by tissue culture infectious dose 50% (TCID50) using 8,000 cells per well and 3-fold viral dilutions across a 96-well plate, cultured for 4 days. Viral stock titers were also quantified by a plaque forming unit assay, as described elsewhere.
Following extensive parameter testing, the final assay is run as follows: Hep-2 cells are seeded into the inner 60 wells of a 96-well plate at 8,000 cells per well in a volume of 50 μL using Growth Media (DMEM without phenol red, 1% L-Glut, 1% Penn/Strep, 1% nonessential amino acids, 10% heat-inactivated FBS). 2-fold serial dilutions of control and test compounds are added to the wells in duplicate in a total volume of 25 μL. Viral stock is then added to the wells at a multiplicity of infection (MOI) of 0.1 in a volume of 25 μL, bringing the total volume of each well to 100 μL. The MOI is calculated using the PFU/mL, or TCID50 if unavailable. Each 96-well plate has a control column of 6 wells with cells and virus but no compound (negative control, max CPE), a column with cells but no compound or virus (positive control, minimum CPE), and a column with no cells or virus or compound (background plate/reagent control). The control wells with cells but no virus are given an additional 25 μL of growth media containing an equal quantity of sucrose as those wells receiving the viral stock in order to keep consistent in media and volume conditions. The outer wells of the plate are filled with 125 μL of moat media (DMEM, 1% Penn/Strep) to act as a thermal and evaporative moat around the test wells. Following a 5-day incubation period, the plates are read using ATPlite (50 uL added per well), which quantifies the amount of ATP (a measure of cell health) present in each well. Assay plates are read using the Envision luminometer. […] EC50 ranges are as follows: A<0.2 μM; B>0.2 μM.

Experiment [2] relates to hMPV A2 TN/94-49. Put plainly: HMPV antiviral assay Method 2 (LLC-MK2 cells with CP-100-356, ATP-Lite). Format: cell-based. Conditions: hMPV A2 TN/94-49, LLC-MK2 cells, 4 μM CP-100-356, Method 2. Here is the method: In vitro HMPV antiviral activity was evaluated using the clinical isolate A2 strain TN 94-49 (obtained from Dr. John Williams, Vanderbilt University, Tennessee) and LLC-MK2 cells (Millipore Sigma CB_85062804), an immortalized kidney epithelial cell line from Macaca mulatta. Compounds were resuspended in dimethyl sulfoxide (DMSO) at 10 mM, serially diluted and added to a 384-well source plate. Subsequently, the compounds were diluted and transferred onto 384-well assay plates using the Echo-650 automated liquid handling system (Beckman Coulter, Indiana). The test compounds were assessed in duplicate at a top concentration of 200 nM followed by 2.5-fold serial dilutions to give a total of 10 concentration points. DMSO control wells were also included on the assay plates and were either infected or not, acting as positive and negative controls. A2 TN 94-49 virus infections were performed in-suspension with LLC-MK2 cells. The cells were washed twice with PBS and removed from the cell-culture flask with 0.25% trypsin-EDTA (Thermo Fisher Scientific, MA). The trypsin-EDTA was inactivated by resuspending in 2% fetal bovine serum (FBS) and OptiMEM (ThermoFisher Scientific, MA) containing 1% antibiotic-antimycotic. Cells were pelleted by centrifuging for 5 minutes at 800 rpm, the supernatant was removed, and cells were re-suspended and washed in PBS plus 100 μg/mL CaCl2). This step was performed twice. Cells were then re-suspended in serum-free (SF)-OptiMEM containing 4 μg/mL TPCK-Trypsin (Sigma Aldrich, MO), 1% antibiotic-antimycotic (ThermoFisher Scientific, MA), 100 μg/mL CaCl2), and 4 μM of CP-100-356, a P-glycoprotein inhibitor. Cells were counted and seeded at a density of 5,000 cells/well, 12.5 μL/well. Virus infections were done at a multiplicity of infection (MOI) of 0.16 with 12.5 μL added per well. Virus infections were performed in infection media which contained SF-OptiMEM, 100 μg/mL CaCl2) and 1% antibiotic-antimycotic. HMPV viral stocks are suspended in infection media+5% glycerol, thus an equal volume of infection media+5% glycerol was added to uninfected wells to equalize the final % glycerol across all wells of the assay plate. The final concentration of TPCK-trypsin was 2 μg/mL. The final concentration of CP-100-356 was 2 μM. The assay plates were incubated at 37° C., 5% CO2 for 7 days. After 7 days incubation, 12.5 μL of ATP-Lite (PerkinElmer, MA) was added to each well and the raw luminescence values were determined using the Envision 2104 (Perkin Elmer, MA). The average of the raw luminescence values for the cells and virus only positive control wells was subtracted from all conditions tested and the percent cell health was determined by dividing these values by the average of the cells only negative control wells. EC50 values were then calculated by non-linear regression using a four-parameter curve logistic equation. The curve fit model employed was XLFit Dose Response One Site Model 200: y=(A+(B/(1+((x/C)^D)))), where A is the minimum y value, B is the maximum y value, C is the log EC50value, and D is the slope factor.

Some results are limits rather than exact numbers.

Consider `COc1cc(C(=O)NC[C@@](O)(c2ccccc2)c2cc3c(c(-c4ccc(S(C)(=O)=O)cc4F)n2)OC[C@]3(C)C(N)=O)cc2cn(C3(F)CC3)nc12` [Example 371], for which the values for the EC50 in experiment [1] and in experiment [2] were less than 200 nM and more than 200 nM, respectively.
With `COc1cc(C(=O)NC[C@@](O)(c2ccnc(C)c2)c2cc3c(c(-c4cc(Cl)c(F)cc4F)n2)OC[C@]3(C)C(N)=O)cc2cn(C3CC3)nc12` [Example 485], the EC50 in experiment [1] and in experiment [2] was less than 200 nM each time.
For the compound `COc1cc(C(=O)NC[C@](O)(c2cc3c(c(-c4cc(Cl)c(F)cc4F)n2)OC[C@]3(C)C(N)=O)c2nccn2C)cc2cn(C3CC3)nc12` [Example 464], the EC50 in experiment [1] and in experiment [2] was more than 200 nM throughout.
With `COc1cc(C(=O)NC[C@@](O)(c2cccc(F)c2)c2cc3c(c(-c4cc(C(F)(F)F)c(F)cc4F)n2)OC[C@]3(C)C(N)=O)cc2cn(C(F)F)nc12` [Example 301], the EC50 in experiment [1] and in experiment [2] was less than 200 nM throughout.
With `COc1cc(C(=O)NC[C@@](O)(c2cccc(F)n2)c2cc3c(c(-c4cc(Cl)c(F)cc4F)n2)OC[C@]3(C)C(N)=O)cc2cn(C3(F)CC3)nc12` [Example 204], the EC50 in experiment [1] and in experiment [2] was less than 200 nM in each case.
For `C[C@]1(C(N)=O)COc2c1cc([C@@](O)(CNC(=O)c1cc(OC3CC3)c3ncc(Cl)cc3c1)c1ccccc1)nc2-c1ccc(F)c(Cl)c1Cl` [Example 313], the EC50 in experiment [1] and in experiment [2] was less than 200 nM in each case.
For `COc1cc(C(=O)NCC(O)(c2cc3c(c(-c4cc(Cl)c(F)cc4F)n2)OC[C@]3(C)C(N)=O)c2ccc(Cl)s2)cc2cn(C3CC3)nc12` (stereo partly drawn) [Example 472], the EC50 was less than 200 nM in experiment [1] and more than 200 nM in experiment [2].
As for `COc1cc(C(=O)NC[C@@](O)(c2ccccc2)c2cc3c(c(-c4cc(F)c(F)cc4F)n2)OC[C@]3(C)C(N)=O)cc2cc(Cl)cnc12` [Example 198], the EC50 in experiment [1] and in experiment [2] was less than 200 nM throughout.
`COc1cc(C(=O)NC[C@@](O)(c2cnn(C)c2)c2cc3c(c(-c4cc(Cl)c(F)cc4F)n2)OC[C@]3(C)C(N)=O)cc2cn(C3CC3)nc12` [Example 153]: the EC50 in experiment [1] and in experiment [2] was more than 200 nM in each case.
For the compound `COc1cc(C(=O)NC[C@@](O)(c2ccccc2)c2cc3c(c(-c4cccc(Cl)c4Cl)n2)OC[C@]3(C)C(N)=O)cc2oc(C)nc12` [Example 95], the EC50 in experiment [1] and in experiment [2] was less than 200 nM throughout.
Take `COc1cc([C@](O)(CNC(=O)c2cc(OC)c3nn(C4CC4)cc3c2)c2cc3c(c(-c4cccc(Cl)c4Cl)n2)OC[C@]3(C)C(N)=O)cc(OC)n1` [Example 497]: the EC50 in experiment [1] and in experiment [2] was less than 200 nM throughout.
Regarding `C[C@]1(C(N)=O)COc2c1cc([C@@](O)(CNC(=O)c1cc(F)c3nn(C4CC4)cc3c1)c1ccccc1)nc2-c1cc(Cl)c(F)cc1F` [Example 100], the EC50 in experiment [1] and in experiment [2] was less than 200 nM each time.
For `COc1cc(F)c(-c2nc([C@@](O)(CNC(=O)c3cc(OC)c4nn(C5(F)CC5)cc4c3)c3ccccc3)cc3c2OC[C@]3(C)C(N)=O)cc1F` [Example 363], the EC50 was less than 200 nM in experiment [1] and more than 200 nM in experiment [2].
Take `COc1cc(C(=O)NC[C@@](O)(c2cccc(C(C)=O)c2)c2cc3c(c(-c4cccc(Cl)c4Cl)n2)OC[C@]3(C)C(N)=O)cc2cn(C3CC3)nc12` [Example 493]: the EC50 in experiment [1] and in experiment [2] was less than 200 nM in each case.
As for `C[C@]1(C(N)=O)COc2c1cc([C@@](O)(CNC(=O)c1ccc3nc(C4CC4)oc3c1)c1ccccc1)nc2-c1cc(C(F)(F)F)c(F)cc1F` [Example 307], the results for the EC50 in experiment [1] and in experiment [2] were less than 200 nM and more than 200 nM, respectively.
In the same order, the values of `COc1cc(C(=O)NC[C@](O)(c2cccc(F)c2)c2cc3c(c(-c4cc(F)c(F)cc4C(N)=O)n2)OC[C@]3(C)C(N)=O)cc2cn(C3(F)CC3)nc12` [Example 406] are more than 200 nM and more than 200 nM.
With `COc1cc(C(=O)NC[C@@](O)(c2ccccc2)c2cc3c(c(-c4cc(Cl)c(F)cc4F)n2)OC[C@]3(C)C(N)=O)cc2cc(Cl)c(F)nc12` [Example 342], the EC50 in experiment [1] was less than 200 nM; in experiment [2], more than 200 nM.
In the same order, the values of `COc1cc(-c2nc([C@@](O)(CNC(=O)c3cc(OC)c4nn(C5(F)CC5)cc4c3)c3ccccc3)cc3c2OC[C@]3(C)C(N)=O)c(F)cc1F` [Example 364] are less than 200 nM and more than 200 nM.
For `COc1cc(C(=O)NC[C@@](O)(c2cccc(F)n2)c2cc3c(c(-c4ccc(F)c(Cl)c4Cl)n2)OC[C@]3(C)C(N)=O)cc2cn(C3CC3)nc12` [Example 340], in that order: less than 200 nM and less than 200 nM.
Consider `COc1cc(C(=O)NC[C@@](O)(c2ccccc2)c2cc3c(c(-c4cc(C(F)(F)F)c(F)cc4F)n2)OC[C@]3(C)C(N)=O)cc2oc(C3CC3)nc12` [Example 305], for which the EC50 in experiment [1] and in experiment [2] was less than 200 nM each time.
Turning to `COc1cc(C(=O)NC[C@@](O)(c2ccncc2)c2cc3c(c(-c4cc(Cl)c(F)cc4F)n2)OC[C@]3(C)C(N)=O)cc2cn(C3CC3)nc12` [Example 152], the EC50 in experiment [1] and in experiment [2] was less than 200 nM in each case.
Regarding `COc1cc(C(=O)NC[C@@](O)(c2ccccc2)c2cc3c(c(-c4cccc5c4OCO5)n2)OC[C@]3(C)C(N)=O)cc2cn(C3(F)CC3)nc12` [Example 366], the EC50 was less than 200 nM in experiment [1] and more than 200 nM in experiment [2].
`C[C@]1(C(N)=O)COc2c1cc([C@@](O)(CNC(=O)c1ccc3nn(C4CC4)cc3c1)c1ccccc1)nc2-c1cc(Cl)c(F)cc1F` [Example 101]: the EC50 in experiment [1] and in experiment [2] was less than 200 nM in each case.
With `COc1cc(C(=O)NC[C@@](O)(c2ccccc2)c2cc3c(c(-c4ccc(F)c(F)c4Cl)n2)OC[C@]3(C)C(N)=O)cc2cn(C3(F)CC3)nc12` [Example 370], the EC50 in experiment [1] and in experiment [2] was less than 200 nM throughout.
In the case of `COc1cc(C(=O)NC[C@@](O)(c2ccnc(C#N)c2)c2cc3c(c(-c4cc(Cl)c(F)cc4F)n2)OC[C@]3(C)C(N)=O)cc2cn(C3CC3)nc12` [Example 501], the EC50 in experiment [1] and in experiment [2] was less than 200 nM in each case.
Turning to `[2H]c1nc2c(OC)cc(C(=O)NC[C@@](O)(c3ccccc3)c3cc4c(c(-c5cc(Cl)c(F)cc5F)n3)OC[C@]4(C)C(N)=O)cc2cc1Cl` [Example 220], the EC50 in experiment [1] and in experiment [2] was less than 200 nM throughout.
Consider `COc1cc(C(=O)NC[C@@](O)(c2ccccc2)c2cc3c(c(-c4cc(C(F)(F)F)c(F)cc4F)n2)OC[C@]3(C)C(N)=O)cc2cn(C3(F)CC3)nc12` [Example 303], for which the EC50 in experiment [1] and in experiment [2] was less than 200 nM in each case.

The term EC50 denotes the concentration that produces a half-maximal response. High values mean lower potency in that assay, low ones higher potency in that assay.

The values above are taken from US12358921B2, “Antiviral heterocyclic compounds” (priority 2022, dated 2025).
